Experimental data published in US7258861B2, “TNF-derived peptides for use in treating oedema” (Innogenetics N.V., priority 2001, dated 2007).

How the values were obtained:
C57/BL6 wild type mice = test: In situ mouse model of alveolar fluid clearance, wild type mice; type: in vivo; conditions: over 15 min, compared to controls; 0.5 μg/mouse instilled
Procedure: In situ mouse model. Mice were killed by an overdose of pentobarbital sodium (200 mg/kg i.p.). A tracheotomy was done with a 20-gauge trimmed angiocath plastic needle (Becton Dickinson, Sandy, Utah, USA). The lungs were inflated with 7 cm H2O continuous positive airway pressure (CPAP) with 100% oxygen throughout the experiments. Body temperature was maintained at 37–38° C. by an infra-red lamp placed 30 cm above the body (Fisher, Santa Clara, Calif., USA). The lamp was cycled on and off to maintain the core temperature. A temperature probe (Yellow Springs Instrument, Yellow Springs, Ohio, USA) was inserted via a 0.5 cm incision into the abdominal cavity to monitor the core temperature throughout the experiment. These methods have been reported in Matthay et al., 1996 and Ma et al., 2000. […] We added 0.1 μCi of ^131I-labelled albumin (Merck-Frost, Montreal, PQ, Canada) to the instillate as a labeled alveolar protein tracer. • Group 1: Basal alveolar fluid clearance in the wild type mice (n=3) and TNF-R1/TNF-R2 double knock out mice (n=3). • Group 2: Effect of wild type mTNF (0.5 μg/mouse) stimulated alveolar fluid clearance was measured in wild type mice (n=5) and TNF-R1/TNF-R2 double knock out mice (n=5) (Bruce et al., 1996).

[1] = Chloride efflux from SPQ-containing liposomes; conditions: 100% EPG liposomes, pH 6.1, 3 μg/ml
Procedure: Preparation of liposomes. Large unilamellar liposomes were prepared by reverse phase evaporation as previously described (Vecsey-Semjen et al., 1996). Liposomes were prepared of either 100% egg phosphatidylglycerol (EPG) or a mixture of EPC and EPG (1:1 W/W) in a buffer containing 100 mM KCl, 20 mM N-[2-Hydroxyethyl]piperazine-N′-[2-ethane-sulfonic acid] (HEPES), pH 7.4 and 1.5 mg/ml of 6-methoxy-N-(3-sulfopropyl)quinolinium (SPQ).
Choride efflux measurements. All fluorescence experiments were carried out using a PTI spectrofluorometer equipped with a thermostated cell holder (37° C.). The dye was excited at 350 nm and emission was recorded at 422 nm, both excitation and emission band widths were set to 5 nm. Liposomes were diluted to a final concentration of 50 μg/ml in a solution containing 100 mM KNO3 and 20 mM MES pH 6.1 or 20 mM HEPES, pH 7.4. Wild type and mutant TNF were added to a final concentration of 3 μg/ml.

## TNF: E.coli-derived recombinant murine TNF
C57/BL6 wild type mice
  increase in alveolar fluid clearance (AFC): 24%
[1]
  chloride efflux (SPQ fluorescence): induced chloride efflux
